# Experiments:
# Type in all cases: binding
# AVPR1A = biological target: T1, AVPR1A (Homo sapiens, UniProt P37288); test: NanoBRET screen HiBiT-AVPR1A in HEK293
# T1 construct: purchased Promega (in-house HiBiT-GPCR construct library, NanoBRET)
# Procedure: (§1) Each tracer candidate was screened across the entire library of HiBiT-GPCR constructs using NanoBRET as the detection modality. As depicted in Figure 4A, the specificity of interactions was evaluated through decrease in BRET due to competitive displacement of a bound tracer by excess parental compound. Each tracer was analyzed for binding to each HiBiT-GPCR fusion in the absence and in the presence of competing parental compound. Briefly, HEK293 cells were transfected with HiBiT-GPCR constructs diluted into promoterless DNA to reduce expression and maximize translocation to the cell surface. Each tracer candidate was then screened at concentrations of 1 μM and 0.1 μM across cells expressing these fusions. Cells were treated for 1.5 h with tracer either alone or in the presence of 20 μM competing parental compound (i.e., control). BRET was measured upon addition of purified LgBiT and subsequent complementation with HiBiT genetically fused to a GPCR. The specificity of interactions was assessed through a decrease in BRET signal due to competitive displacement of the bound tracer. To further gauge the robustness of these interactions, the fold response over the control (i.e., BRETtracer/BRETcontrol) was calculated. We chose a 1.5-fold response, which translates to ≥7-fold signal over noise as the minimal threshold required to score an interaction as positive.
# (§2) HiBiT-GPCR DNA constructs were diluted in 10 mM Tris pH 8 to a final concentration of 0.01 μg/μL, arrayed in 96-well plates and stored at −20 °C. For transfection, HEK293 cells were suspended in Opti-MEM (without phenol red) supplemented with 2% fetal bovine serum (Seradigm) and 100 units/mL penicillin–streptomycin (Gibco) at a final concentration of 220,000 cells/mL and dispensed into white 96-well plates at 90 μL/well. Subsequent transfections and screens were carried using an Agilent Bravo Automated Liquid Handling Platform. First, the 96-well HiBiT DNA arrays were diluted 25-fold in Opti-MEM (without serum or phenol red) to a final concentration of 0.0004 μg/μL and 20 μL of the diluted DNAs were transferred into new 96-well plates. Next, promoterless carrier DNA (1 μg/μL) was diluted 25-fold (0.04 μg/μL) and then dispensed into the diluted arrays at 20 μL/well. Following brief mixing, Viafect transfection reagent (Promega) diluted 16-fold into Opti-MEM was dispensed into the plates at 40 μL/well. After mixing by pipetting, plates were incubated for 10 min on the pipetting station deck. The DNA-transfection reagent complexes were then added to plates containing cells. To facilitate the screen, 10 μL of DNA-transfection reagent complexes were added in duplicates to the top 4 and bottom 4 rows, resulting in two identical 48-well arrays per plate. Plates with transfected cells were incubated for 18–20 h at 37 °C/5% CO2. A screen of each tracer across the entire library using two different concentrations requires duplicate plates of transfected cells. Depending on the number of tracers being screened, transfections can be scaled up using the same ratios. The next day, for each tracer, four 20× screening solutions in tracer dilution buffer (Promega) were prepared: two duplicates at final concentration of 20 μM and two duplicates at a final concentration of 2 μM. […] The four resulting solutions were diluted 4-fold in Opti-MEM without serum or phenol red to generate 5× solutions (5 µM and 0.5 µM tracer +/− 100 μM competing compound). To screen the library, a BioTek MultiFlo FX liquid dispenser was used to dispense 22.5 µL of tracer solution to the top 4 rows and 22.5 µL tracer + competing compound solution to the 4 bottom rows. Plates were briefly mixed on an orbital shaker and incubated for 1.5 h at room temperature. […] Plates were briefly mixed on an orbital shaker and incubated for 15 min to allow complementation.
# HTR7 = biological target: T2, HTR7 (Homo sapiens, UniProt P34969); test: NanoBRET screen HiBiT-HTR7 in HEK293
# T2 construct: purchased Promega (in-house HiBiT-GPCR construct library, NanoBRET)
# T2 sequence (P34969 whole entry): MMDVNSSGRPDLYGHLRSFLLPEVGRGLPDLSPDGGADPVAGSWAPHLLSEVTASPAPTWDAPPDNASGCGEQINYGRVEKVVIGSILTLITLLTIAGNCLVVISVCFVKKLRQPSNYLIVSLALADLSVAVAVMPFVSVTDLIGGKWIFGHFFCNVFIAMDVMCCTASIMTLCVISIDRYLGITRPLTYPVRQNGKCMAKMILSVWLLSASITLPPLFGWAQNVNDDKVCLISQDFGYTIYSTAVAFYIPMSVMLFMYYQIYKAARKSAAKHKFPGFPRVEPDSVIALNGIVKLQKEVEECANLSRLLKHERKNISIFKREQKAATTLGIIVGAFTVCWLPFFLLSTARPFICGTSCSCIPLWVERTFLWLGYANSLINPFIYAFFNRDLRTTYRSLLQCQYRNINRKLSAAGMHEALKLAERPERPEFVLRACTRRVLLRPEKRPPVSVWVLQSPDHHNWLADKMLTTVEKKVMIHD
# Procedure: as §1, §2
# TSHR = biological target: T3, TSHR (Homo sapiens, UniProt P16473); test: NanoBRET screen HiBiT-TSHR in HEK293
# T3 construct: purchased Promega (in-house HiBiT-GPCR construct library, NanoBRET)
# T3 sequence (P16473 21-764): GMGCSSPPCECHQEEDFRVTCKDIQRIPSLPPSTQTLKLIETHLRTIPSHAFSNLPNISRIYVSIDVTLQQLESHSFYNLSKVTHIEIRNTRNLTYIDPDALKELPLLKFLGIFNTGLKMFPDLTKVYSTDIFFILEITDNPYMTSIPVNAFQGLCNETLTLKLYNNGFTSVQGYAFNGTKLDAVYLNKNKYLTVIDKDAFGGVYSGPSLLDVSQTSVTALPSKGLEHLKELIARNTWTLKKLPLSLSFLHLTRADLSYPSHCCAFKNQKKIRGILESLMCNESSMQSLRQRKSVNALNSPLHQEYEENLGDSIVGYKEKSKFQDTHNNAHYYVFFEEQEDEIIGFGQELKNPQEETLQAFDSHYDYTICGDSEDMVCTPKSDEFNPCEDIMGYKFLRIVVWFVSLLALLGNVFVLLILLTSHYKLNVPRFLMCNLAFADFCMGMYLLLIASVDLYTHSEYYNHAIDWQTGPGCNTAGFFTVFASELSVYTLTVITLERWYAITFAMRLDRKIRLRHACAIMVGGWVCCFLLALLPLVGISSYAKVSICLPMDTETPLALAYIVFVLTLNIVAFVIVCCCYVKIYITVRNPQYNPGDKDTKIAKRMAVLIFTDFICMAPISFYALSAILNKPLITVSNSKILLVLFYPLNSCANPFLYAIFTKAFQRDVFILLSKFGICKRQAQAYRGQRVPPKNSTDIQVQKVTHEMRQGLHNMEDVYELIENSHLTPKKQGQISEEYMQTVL
# Procedure: as §1, §2
# CNR2 = biological target: T4, CNR2 (Homo sapiens, UniProt P34972); test: NanoBRET screen HiBiT-CNR2 in HEK293
# T4 construct: purchased Promega (in-house HiBiT-GPCR construct library, NanoBRET)
# T4 sequence (P34972 whole entry): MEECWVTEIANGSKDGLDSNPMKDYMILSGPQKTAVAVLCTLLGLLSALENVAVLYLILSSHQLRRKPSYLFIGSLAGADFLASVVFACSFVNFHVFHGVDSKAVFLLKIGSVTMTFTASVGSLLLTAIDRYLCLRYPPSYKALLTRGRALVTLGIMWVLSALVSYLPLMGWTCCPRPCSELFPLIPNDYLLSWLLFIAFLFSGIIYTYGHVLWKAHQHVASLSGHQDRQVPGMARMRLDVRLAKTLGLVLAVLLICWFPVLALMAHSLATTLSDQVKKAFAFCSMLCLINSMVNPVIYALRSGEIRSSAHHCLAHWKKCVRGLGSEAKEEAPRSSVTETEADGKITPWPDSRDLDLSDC
# Procedure: as §1, §2
# [1] = tracer at 0.1μM, listed as amitriptyline-b-2-NB590
# [2] = tracer at 1μM, listed as amitriptyline-b-2-NB590
# T1 sequence (P37288 whole entry): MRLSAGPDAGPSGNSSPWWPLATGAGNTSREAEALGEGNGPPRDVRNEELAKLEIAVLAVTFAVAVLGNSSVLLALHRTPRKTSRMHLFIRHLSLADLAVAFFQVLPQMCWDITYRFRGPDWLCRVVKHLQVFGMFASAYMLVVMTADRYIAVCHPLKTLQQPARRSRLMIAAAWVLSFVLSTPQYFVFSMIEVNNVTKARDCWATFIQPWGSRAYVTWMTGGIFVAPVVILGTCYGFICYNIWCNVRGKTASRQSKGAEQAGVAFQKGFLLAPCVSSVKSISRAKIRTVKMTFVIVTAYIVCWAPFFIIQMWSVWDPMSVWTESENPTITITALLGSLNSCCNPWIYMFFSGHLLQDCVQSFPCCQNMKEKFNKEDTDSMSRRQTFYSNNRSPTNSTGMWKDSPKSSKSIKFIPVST
Compound,"NanoBRET Fold Response (AVPR1A; AVPR1A, tracer 0.1μM)","NanoBRET Fold Response (AVPR1A; AVPR1A, tracer 1μM)","NanoBRET Fold Response (HTR7; HTR7, tracer 0.1μM)","NanoBRET Fold Response (HTR7; HTR7, tracer 1μM)","NanoBRET Fold Response (TSHR; TSHR, tracer 0.1μM)","NanoBRET Fold Response (TSHR; TSHR, tracer 1μM)","NanoBRET Fold Response (CNR2; CNR2, tracer 0.1μM)","NanoBRET Fold Response (CNR2; CNR2, tracer 1μM)",other results
Cc1nc2n(c(=O)c1CCN1CCC(c3noc4cc(F)ccc34)CC1)CCCC2OC(=O)NCCOCCOCCOCCOCCNC(=O)CCc1ccc2n1[B-](F)(F)[N+]1=C(c3ccc[nH]3)C=CC1=C2 (stereo not drawn) [Risperidone-2-NB590],0.90,0.87,1.06,1.19,1.00,0.96,1.04,1.12,
CCOC(=O)c1cc(C#N)c(N2CCC(C(=O)NS(=O)(=O)Cc3ccccc3/C=C/C(=O)NCCNC(=O)CCc3ccc4n3[B-](F)(F)[N+]3=C(c5ccc[nH]5)C=CC3=C4)CC2)nc1C [AZD1283-1-NB590],,,,,,,,,"NanoBRET Fold Response (AVPR1A; AVPR1A, 0.1μM): 1.17; NanoBRET Fold Response (AVPR1A; AVPR1A, 1μM): 1.06; NanoBRET Fold Response (HTR7; HTR7, 0.1μM): 1.08; NanoBRET Fold Response (HTR7; HTR7, 1μM): 1.09; NanoBRET Fold Response (TSHR; TSHR, 0.1μM): 1.00; NanoBRET Fold Response (TSHR; TSHR, 1μM): 0.96; NanoBRET Fold Response (CNR2; CNR2, 0.1μM): 1.04; NanoBRET Fold Response (CNR2; CNR2, 1μM): 0.91"
Cc1cc2c(s1)Nc1ccccc1N=C2N1CCN(CCCNC(=O)CCOCCOCCOCCOCCNC(=O)CCc2ccc3n2[B-](F)(F)[N+]2=C(c4ccc[nH]4)C=CC2=C3)CC1 [Olanzapine-a-2-NB590],1.11,1.16,0.99,1.16,,,0.23,1.06,
COc1ccccc1N1CCN(CCCCN2C(=O)c3ccc(CNC(=O)CCOCCNC(=O)c4ccc(CNC(=O)CCc5ccc6n5[B-](F)(F)[N+]5=C(c7ccc[nH]7)C=CC5=C6)cc4)cc3C2=O)CC1 [NAN-190-3-NB590],0.90,0.75,1.21,1.05,1.01,1.04,1.09,1.15,
CC(C)N(CC[C@H](c1ccccc1)c1cc(CCNC(=O)CCOCCOCCOCCOCCNC(=O)CCc2ccc3n2[B-](F)(F)[N+]2=C(c4ccc[nH]4)C=CC2=C3)ccc1O)C(C)C [Tolterodine-2-NB590],0.91,1.03,1.06,1.07,0.69,1.20,0.94,1.11,
CN(C)CCC=C1c2ccccc2CCc2ccc(C(=O)NCCNC(=O)CCOCCOCCOCCOCCNC(=O)CCc3ccc4n3[B-](F)(F)[N+]3=C(c5ccc[nH]5)C=CC3=C4)cc21 [Amitriptyline-b-2-NB590],,,,,,,0.96,1.05,NanoBRET Fold Response (AVPR1A; [1]): 1.10; NanoBRET Fold Response (AVPR1A; [2]): 0.77; NanoBRET Fold Response (HTR7; [1]): 0.94; NanoBRET Fold Response (HTR7; [2]): 0.94
O=C(CCOCCOCCOCCOCCNC(=O)CCc1ccc2n1[B-](F)(F)[N+]1=C(c3ccc[nH]3)C=CC1=C2)NCCCN1CCN(C2=Nc3ccccc3Oc3ccc(Cl)cc32)CC1 [Loxapine-a-2-NB590],1.16,0.90,1.07,1.30,0.97,1.07,0.33,1.25,
CN(C)CCC=C1c2ccccc2CCc2ccc(C(=O)NCCNC(=O)CCOCCOCCOCCOCCNC(=O)CCc3ccc4n3[B-](F)(F)[N+]3=C(c5ccc[nH]5)C=CC3=C4)cc21 [Amitriptyline-a-2-NB590],,,,,,,,,NanoBRET Fold Response (AVPR1A; tracer at 0.1μM): 0.93; NanoBRET Fold Response (AVPR1A; tracer at 1μM): 1.11; NanoBRET Fold Response (HTR7; tracer at 0.1μM): 1.00; NanoBRET Fold Response (HTR7; tracer at 1μM): 1.15
O=C(CCc1ccc2n1[B-](F)(F)[N+]1=C(c3ccc[nH]3)C=CC1=C2)NCCOCCOCCNC(=O)OCCOCCN1CCN(C2=Nc3ccccc3Sc3ccccc32)CC1 [Quetiapine-a-2-NB590],1.02,1.00,1.01,1.15,0.96,0.92,1.07,1.29,
COc1ccccc1N1CCN(CCCCN2C(=O)c3ccc(CNC(=O)CCOCCOCCOCCOCCNC(=O)CCc4ccc5n4[B-](F)(F)[N+]4=C(c6ccc[nH]6)C=CC4=C5)cc3C2=O)CC1 [NAN-190-2-NB590],0.97,0.96,,1.10,0.96,1.06,0.81,,
CN1CCN(C2=Nc3cc(Cl)ccc3N(CC(=O)NCCOCCOCCOCCOCCNC(=O)CCc3ccc4n3[B-](F)(F)[N+]3=C(c5ccc[nH]5)C=CC3=C4)c3ccccc32)CC1 [Clozapine-c-2-NB590],,,,,,,,,"NanoBRET Fold Response (AVPR1A; AVPR1A, 0.1μM tracer): 0.99; NanoBRET Fold Response (AVPR1A; AVPR1A, 1μM tracer): 0.96; NanoBRET Fold Response (TSHR; TSHR, 0.1μM tracer): 0.99; NanoBRET Fold Response (TSHR; TSHR, 1μM tracer): 1.04; NanoBRET Fold Response (CNR2; CNR2, 0.1μM tracer): 0.96; NanoBRET Fold Response (CNR2; CNR2, 1μM tracer): 1.13"
N#CN/C(=N\CCNC(=O)c1ccc(N)cc1)NCCCOc1cccc(CN2CCCCC2)c1 [Aminopotentidine (unmodified)],,,,,,,,,"NanoBRET Fold Response (HTR7; HTR7, other tracers/Aminopotentidine (unmodified), 0.1μM): 1.10; NanoBRET Fold Response (HTR7; HTR7, other tracers/Aminopotentidine (unmodified), 1μM): 1.18"
COc1ccc2[nH]c(-c3ccc(CNC(=O)CCOCCOCCOCCOCCNC(=O)CCc4ccc5n4[B-](F)(F)[N+]4=C(c6ccc[nH]6)C=CC4=C5)cc3)c(CCNC(C)=O)c2n1 [AzomelatoninICO9-2-NB590],,,,,,,,,NanoBRET Fold Response (AVPR1A; 0.1μM tracer): 0.80; NanoBRET Fold Response (AVPR1A; 1μM tracer): 0.75; NanoBRET Fold Response (HTR7; 0.1μM tracer): 0.96; NanoBRET Fold Response (HTR7; 1μM tracer): 1.02; NanoBRET Fold Response (TSHR; 0.1μM tracer): 1.03; NanoBRET Fold Response (TSHR; 1μM tracer): 0.95; NanoBRET Fold Response (CNR2; 0.1μM tracer): 0.97; NanoBRET Fold Response (CNR2; 1μM tracer): 1.06
O=C(CCc1ccc2n1[B-](F)(F)[N+]1=C(c3ccc[nH]3)C=CC1=C2)NCc1ccc(C(=O)NCCOCCOCCNCC(O)COc2cccc3ccccc23)cc1 (stereo not drawn) [Propranolol-3-NB590],,,,,,,,,"NanoBRET Fold Response (AVPR1A; AVPR1A, 0.1μM): 1.06; NanoBRET Fold Response (AVPR1A; AVPR1A, 1μM): 0.97; NanoBRET Fold Response (HTR7; HTR7, 0.1μM): 1.03; NanoBRET Fold Response (HTR7; HTR7, 1μM): 1.02; NanoBRET Fold Response (CNR2; CNR2, 0.1μM): 0.95; NanoBRET Fold Response (CNR2; CNR2, 1μM): 1.01"
CN(CCC=C1c2ccccc2CCc2ccccc21)C(=O)CCOCCOCCOCCOCCNC(=O)CCc1ccc2n1[B-](F)(F)[N+]1=C(c3ccc[nH]3)C=CC1=C2 [Amitriptyline-e-2-NB590],,,,,,,,,NanoBRET Fold Response (AVPR1A; tracer at 1μM): 0.98; NanoBRET Fold Response (HTR7; tracer at 1μM): 0.96
CN1CCN(C2=Nc3cc(Cl)ccc3Nc3ccc(CNC(=O)CCOCCOCCOCCOCCNC(=O)CCc4ccc5n4[B-](F)(F)[N+]4=C(c6ccc[nH]6)C=CC4=C5)cc32)CC1 [Clozapine-b-2-NB590],,,,,,,,,"NanoBRET Fold Response (AVPR1A; AVPR1A, 0.1μM tracer): 1.04; NanoBRET Fold Response (AVPR1A; AVPR1A, 1μM tracer): 0.98; NanoBRET Fold Response (TSHR; TSHR, 0.1μM tracer): 1.04; NanoBRET Fold Response (TSHR; TSHR, 1μM tracer): 0.99; NanoBRET Fold Response (CNR2; CNR2, 0.1μM tracer): 1.05"
